Assay results from patent US12102615B2 (THE TEXAS A&M UNIVERSITY SYSTEM, priority 2018, dated 2024).
Numbered stars: 1 amine (or outer) side, 2 acyl side, 3 side chain; on linkers, the order of the positions; unused ones are H or OH. Square brackets hold non-standard residues; d marks the D form. Peptide text beside a SMILES is read from it. dTyr(βR-OH) = N[C@@H](C(=O)O)[C@H](O)c1ccc(O)cc1; X1 = CCCCCCCCCCCCNCC[C@H](CC(=O)[*:2])N[*:1]; Asn(3S-OH) = NC(=O)[C@@H](O)[C@H](N)C(=O)O; dDab = NCC[C@@H](N)C(=O)O

Tests used:
[1] = test system: Candida glabrata ATCC 2001; experiment: Minimum inhibitory concentration (MIC) assay, modified CLSI M27-A3; type: cell-based; settings: 24 hours, 35° C.
Protocol: (§1) MIC assays were performed in duplicate as previously described following a modified version of the CLSI M27-A3 methods.
(§2) Minimum inhibitory concentration (MIC) susceptibility testing was performed following a modified version, as previously reported, of the CLSI M27-A3 methods for the susceptibility testing of yeasts. Incubation temperature was 35° C. and the inoculum size was 0.5-2.5×10^3 colony-forming units (CFU)/mL for yeasts. MICs were performed to determine the bioactivity of each new OF-Δxyl analogue (Table 3).

[2] = test system: Candida albicans ATCC 3147; type: cell-based; settings: 24 hours, 35° C., listed as dihydrosphingosine
Protocol: as §1, §2

[3] = test system: S. cerevisiae DGY6 haploid BY4741; type: cell-based; settings: Saccharomyces cerevisiae DGY6 haploid BY4741; 24 hours, 35° C.
Protocol: as §1, §2

[4] = molecular target: T1, actin (Oryctolagus cuniculus, UniProt P68135); experiment: Pyrene labeled actin polymerization assay; type: biochemical; settings: 5 μM; approximately one hour after incubation in the polymerization buffer
T1 construct: purchased Cytoskeleton, Inc. (Denver, CO) BK003
Protocol: (§3) Actin polymerization and depolymerization assays were performed using the Actin polymerization biochem kit (#BK003; Cytoskeleton, Inc. Denver, CO) following the manufacturer's instructions with some modifications. Briefly, for the polymerization assay, G-actin stock solution was made at 0.2 mg/mL instead of 0.4 mg/mL. For the depolymerization assay, F-actin stock solution was diluted 9-fold instead of 5-fold. […] The experiments were done in duplicate.

[5] = molecular target: T2, F-actin (Oryctolagus cuniculus, UniProt P68135); experiment: Pyrene labeled actin depolymerization assay; type: biochemical; set-up: purchased Cytoskeleton, Inc. (Denver, CO) BK003; settings: 5 μM
Protocol: as §3

[6] = molecular target: T2, F-actin; experiment: Actin co-sedimentation assay; type: binding, rabbit; set-up: Purified rabbit skeletal muscle filamentous actin (AKF99); purchased Cytoskeleton Inc. (Denver, CO) AKF99; host or cells: rabbit skeletal muscle

Row | SMILES | MIC [1] [µg/mL] | MIC [2] [µg/mL] | MIC [3] [µg/mL] | pyrene fluorescence reading, plateau in polymerization buffer [4] | effect on polymerization or depolymerization of actin [5] | pyrene fluorescent reading following incubation in depolymerization buffer ([5]; no drug control at 2,500 AU) | Kd [6] [nM] | fold lower saturation of binding ratio than native occidiofungin ([6]; versus native occidiofungin) [fold] | fold lower binding affinity to actin than native compound ([6]; versus native occidiofungin) [fold]
1 | CCCCCCCCCCCCCCCC(O)C(CO)NCC[C@@H]1CC(=O)N[C@H](CO)C(=O)N[C@H]([C@H](O)c2ccc(O)cc2)C(=O)N[C@H](CCN)C(=O)NCC(=O)N[C@@H](CC(N)=O)C(=O)N[C@@H](CO)C(=O)N[C@@H]([C@H](O)C(N)=O)C(=O)N1 (mixture of isomers) | 8 | 16 | 2 | ~21,000 AU | did not interfere with polymerization or depolymerization of actin | 2,500 AU | 25 | 13.5 | 
2 | CCCCCCCCCCCCNCC[C@@H]1CC(=O)N[C@H](CO)C(=O)N[C@H]([C@H](O)c2ccc(O)cc2)C(=O)N[C@H](CCN)C(=O)NCC(=O)N[C@@H](CC(N)=O)C(=O)N[C@@H](CO)C(=O)N[C@@H]([C@H](O)C(N)=O)C(=O)N1 [Dodecylamine containing OF-Δxyl analogue] (cyclo(GNS[Asn(3S-OH)][X1][dS][dTyr(βR-OH)][dDab])) |  |  | >4 |  |  |  | 4200 |  | ~4
